Source: patent US12465603B2, “Phthalazinone based modulators for the treatment of disease” (Soley Therapeutics, Inc., priority 2022, dated 2025)

How the values were obtained:
[1] = tested on: A2058 (ATCC, CRL-11147) cells; assay: Cell viability assay (Cell Titre Glo, 72 hours) in A2058 cells; format: cell-based; settings: Homo sapiens
Description: (§1) Example 31: Cell Viability Assays
(§2) Phthalazinone based modulators as described herein were dispensed into 384 well CulturPlates™ (PerkinElmer) using Echo 555 acoustic dispensing in 10-point dose response curves at a final top concentration of 30 μM following a 1 in 3 dilution series. A2058 (ATCC, CRL-11147) or PA1 (ECACC, 90013101) cells were added directly to a compound at a density of 5000 cells per well in a final volume of 50 μL and incubated for 72 hours at 37° C., 5% CO2. Viability was assessed using Cell Titre Glo® (Promega) according to the manufacturer's instructions (25 μL per well) and IC50 curves were generated for each inhibitor using IDBS ActivityBase data analysis software.

[2] = tested on: PA1 (ECACC, 90013101) cells; assay: Cell viability assay (Cell Titre Glo, 72 hours) in PA1 cells; format: cell-based; settings: Homo sapiens, PA-1
Description: as §1, §2

SMILES | IC50 [1] | IC50 [2]
Cc1ccc(N2CCN(C(=O)c3nn(C)c(=O)c4ccccc34)CC2)cc1 [Compound 10, 2-methyl-4-[4-(p-tolyl)piperazine-1-carbonyl]phthalazin-1-one] | > 20 µM | > 20 µM
Cc1cc(C)cc(N2CCN(C(=O)c3nn(C)c(=O)c4ccccc34)CC2)c1 [Compound 205] | ≤ 1 µM | ≤ 1 µM
COc1cc(F)cc(N2CCN(C(=O)c3nn(C)c(=O)c4ncccc34)CC2)c1 [Compound 184, 5-(4-(3-fluoro-5-methoxyphenyl)piperazine-1-carbonyl)-7-methylpyrido[2,3-d]pyridazin-8(7H)-one] | 10 to 20 µM | 1 to 10 µM
Cn1nc(C(=O)N2CCN(c3cc(F)cc(F)c3)CC2)c2ccccc2c1=O [Compound 54] | ≤ 1 µM | ≤ 1 µM
COc1ccncc1N1CCN(C(=O)c2nn(C)c(=O)c3ccccc23)CC1 [Compound 37] | ≤ 1 µM | ≤ 1 µM
Cn1nc(C(=O)N2CCN(c3ccncc3C3CC3)CC2)c2ccccc2c1=O [Compound 71] | ≤ 1 µM | ≤ 1 µM
COc1ncc(F)cc1N1CCN(C(=O)c2nn(C)c(=O)c3ccccc23)CC1 [Compound 75] | ≤ 1 µM | ≤ 1 µM
Cn1nc(C(=O)N2CCN(c3cccc(C#N)n3)CC2)c2ccccc2c1=O [Compound 228] | 10 to 20 µM | 1 to 10 µM
CCn1nc(C(=O)N2CCN(c3ccc(F)cc3OC(F)F)CC2)c2ccccc2c1=O [Compound 145] | 1 to 10 µM | ≤ 1 µM
Cc1cc(N2CCN(C(=O)c3nn(C)c(=O)c4ccccc34)CC2)ccn1 [Compound 74] | > 20 µM | > 20 µM
Cn1nc(C(=O)N2CCN(c3cc(C#N)cc(C#N)c3)CC2)c2ccccc2c1=O [Compound 230, 5-(4-(3-methyl-4-oxo-3,4-dihydrophthalazine-1-carbonyl)piperazin-1-yl)isophthalonitrile] | 1 to 10 µM | ≤ 1 µM
COCc1ccnc(N2CCN(C(=O)c3nn(C)c(=O)c4ccccc34)CC2)n1 [Compound 65] | > 20 µM | > 20 µM
COc1nccnc1N1CCN(C(=O)c2nn(C)c(=O)c3ccccc23)CC1 [Compound 16] | 10 to 20 µM | 1 to 10 µM
Cc1cc(N2CCN(C(=O)c3nn(C)c(=O)c4ccccc34)CC2)ccc1F [Compound 55] | > 20 µM | 10 to 20 µM
COc1cc(N2CCN(C(=O)c3nn(C)c(=O)c4ccccc34)CC2)ccn1 [Compound 36] | > 20 µM | > 20 µM
CCn1nc(C(=O)N2CCN(c3cccc(F)n3)CC2)c2ccccc2c1=O [Compound 82] | > 20 µM | 10 to 20 µM
CCn1nc(C(=O)N2CCN(c3ncccc3C)CC2)c2ccccc2c1=O [Compound 106] | 1 to 10 µM | 1 to 10 µM
CCn1nc(C(=O)N2CCN(c3cncnc3C3CC3)CC2)c2ccccc2c1=O [Compound 122] | 1 to 10 µM | ≤ 1 µM
CCn1nc(C(=O)N2CCN(c3cccc(C#N)c3)CC2)c2ccccc2c1=O [Compound 207] | ≤ 1 µM | ≤ 1 µM
CCn1nc(C(=O)N2CCN(c3cccc4c3OC(F)(F)O4)CC2)c2ccccc2c1=O [Compound 124] | ≤ 1 µM | ≤ 1 µM
CCn1nc(C(=O)N2CCN(c3cccc4c3CCO4)CC2)c2ccccc2c1=O [Compound 155] | ≤ 1 µM | ≤ 1 µM

SMILES | IC50 [1] | IC50 [2]
CCn1nc(C(=O)N2CCN(c3ccccc3F)CC2)c2ccccc2c1=O [Compound 100] | 1 to 10 µM | ≤ 1 µM
COc1cc(C#N)cc(N2CCN(C(=O)c3nn(C)c(=O)c4ccncc34)CC2)c1 [Compound 216] | ≤ 1 µM | ≤ 1 µM
CCn1nc(C(=O)N2CCN(c3cccc(C#N)c3)CC2)c2cc(F)ccc2c1=O [Compound 240] | ≤ 1 µM | ≤ 1 µM
CCn1nc(C(=O)N2CCN(c3cc(OC)cnn3)CC2)c2ccccc2c1=O [Compound 112] | > 20 µM | > 20 µM
CCn1nc(C(=O)N2CCN(c3nccnc3OC)CC2)c2ccccc2c1=O [Compound 99] | 1 to 10 µM | 1 to 10 µM
COc1cc(C#N)cc(N2CCN(C(=O)c3nn(C)c(=O)c4ccccc34)CC2)c1 [Compound 224, 3-methoxy-5-(4-(3-methyl-4-oxo-3,4-dihydrophthalazine-1-carbonyl)piperazin-1-yl)benzonitrile] | ≤ 1 µM | ≤ 1 µM
COc1ccccc1N1CCN(C(=O)c2nn(C)c(=O)c3ccncc23)CC1 [Compound 175] | 1 to 10 µM | ≤ 1 µM
CCn1nc(C(=O)N2CCN(c3ccc(OC)c(F)c3)CC2)c2ccccc2c1=O [Compound 141] | > 20 µM | > 20 µM
Cn1nc(C(=O)N2CCN(c3cc(C#N)cc(C(F)F)c3)CC2)c2ccccc2c1=O [Compound 201] | ≤ 1 µM | ≤ 1 µM
Cn1nc(C(=O)N2CCN(c3ccc(C#N)cc3)CC2)c2ccccc2c1=O [Compound 46] | 1 to 10 µM | 1 to 10 µM
Cn1nc(C(=O)N2CCN(c3cc(C#N)ccc3C(F)F)CC2)c2ccccc2c1=O [Compound 200] | 1 to 10 µM | 1 to 10 µM
CCn1nc(C(=O)N2CCN(c3cccc(C(F)(F)F)c3OC)CC2)c2ccccc2c1=O [Compound 137] | > 20 µM | 10 to 20 µM
COc1ccncc1N1CCN(C(=O)c2nn(C)c(=O)c3ccc(F)cc23)CC1 [Compound 158] | ≤ 1 µM | ≤ 1 µM
CCn1nc(C(=O)N2CCN(c3cccc4c3oc(=O)n4C)CC2)c2ccccc2c1=O [Compound 90] | > 20 µM | > 20 µM
CCn1nc(C(=O)N2CCN(c3cc(F)ccc3OC)CC2)c2ccccc2c1=O [Compound 121] | ≤ 1 µM | ≤ 1 µM
CCn1nc(C(=O)N2CCN(c3ccccc3)CC2)c2ccccc2c1=O [Compound 3, 2-ethyl-4-(4-phenylpiperazine-1-carbonyl)phthalazin-1-one] | 1 to 10 µM | ≤ 1 µM
COc1ccc(N2CCN(C(=O)c3nn(C)c(=O)c4ccccc34)CC2)cc1 [Compound 29] | > 20 µM | > 20 µM
CCn1nc(C(=O)N2CCN(c3ccnc4c3OCC4)CC2)c2ccccc2c1=O [Compound 187] | ≤ 1 µM | ≤ 1 µM
Cc1cc(Cl)cc(N2CCN(C(=O)c3nn(C)c(=O)c4ccncc34)CC2)c1 [Compound 221] | ≤ 1 µM | ≤ 1 µM
CCn1nc(C(=O)N2CCN(c3ccc(F)cc3OC)CC2)c2ccccc2c1=O [Compound 130] | ≤ 1 µM | ≤ 1 µM
COc1ccc(C2(C)CCN(C(=O)c3nn(C)c(=O)c4ccccc34)CC2)cc1 [Compound 248, 4-(4-(4-methoxyphenyl)-4-methylpiperidine-1-carbonyl)-2-methylphthalazin-1(2H)-one] | 1 to 10 µM | 10 to 20 µM

SMILES | IC50 [1] | IC50 [2]
CCn1nc(C(=O)N2CCN(c3ccccc3OC)CC2)c2ccccc2c1=O [Compound 101] | ≤ 1 µM | ≤ 1 µM
CCn1nc(C(=O)N2CCN(c3cccc4c3OC(C)(C)C4)CC2)c2ccccc2c1=O [Compound 96] | 1 to 10 µM | ≤ 1 µM
CCn1nc(C(=O)N2CCN(c3ccccc3OC(F)(F)F)CC2)c2ccccc2c1=O [Compound 135] | ≤ 1 µM | ≤ 1 µM
CCn1nc(C(=O)N2CCN(c3ncc(F)cc3C3CC3)CC2)c2ccccc2c1=O [Compound 88] | ≤ 1 µM | ≤ 1 µM
Cn1nc(C(=O)N2CCN(c3cccc4c3OCC4)CC2)c2ccccc2c1=O [Compound 52] | ≤ 1 µM | ≤ 1 µM
Cc1cncc(N2CCN(C(=O)c3nn(C)c(=O)c4ccc(F)cc34)CC2)c1C [Compound 208] | 1 to 10 µM | ≤ 1 µM
CCn1nc(C(=O)N2CCN(c3ccc(Cl)cc3OC)CC2)c2ccccc2c1=O [Compound 117] | ≤ 1 µM | ≤ 1 µM
CCn1nc(C(=O)N2CCN(c3cc(OC)c(Br)cn3)CC2)c2ccccc2c1=O [Compound 89] | > 20 µM | > 20 µM
CCc1ccncc1N1CCN(C(=O)c2nn(C)c(=O)c3ccc(F)cc23)CC1 [Compound 166] | ≤ 1 µM | ≤ 1 µM
CCn1nc(C(=O)N2CCN(c3ncc(C)cc3F)CC2)c2ccccc2c1=O [Compound 139] | > 20 µM | > 20 µM
Cn1nc(C(=O)N2CCN(c3ccc4ccnn4c3)CC2)c2ccccc2c1=O [Compound 203] | > 20 µM | > 20 µM
Cn1nc(C(=O)N2CCN(c3cncc(F)c3)CC2)c2ccccc2c1=O [Compound 38] | 10 to 20 µM | 1 to 10 µM
COc1ccccc1N1CCN(C(=O)c2nn(C)c(=O)c3cnccc23)CC1 [Compound 179] | 1 to 10 µM | 1 to 10 µM
COc1cccc(N2CCN(C(=O)c3nn(C)c(=O)c4ccccc34)CC2)c1 [Compound 50] | ≤ 1 µM | ≤ 1 µM
CCCn1nc(C(=O)N2CCN(c3ccccc3)CC2)c2ccccc2c1=O [Compound 5] | > 20 µM | 10 to 20 µM
COc1cc(C)cc(N2CCN(C(=O)c3nn(C)c(=O)c4ccncc34)CC2)c1 [Compound 217] | ≤ 1 µM | ≤ 1 µM
CCn1nc(C(=O)N2CCN(c3ccc(F)cc3OC(F)(F)F)CC2)c2ccccc2c1=O [Compound 120] | 1 to 10 µM | 1 to 10 µM
Cn1nc(C(=O)N2CCN(c3cncc(C4CC4)c3)CC2)c2cc(F)ccc2c1=O [Compound 159] | ≤ 1 µM | ≤ 1 µM
CCn1nc(C(=O)N2CCN(c3cc(F)cc(F)c3)CC2)c2ccccc2c1=O [Compound 142] | ≤ 1 µM | ≤ 1 µM
COc1cc(F)ccc1N1CCN(C(=O)c2nn(C)c(=O)c3cnccc23)CC1 [Compound 178] | > 20 µM | > 20 µM
